Drawing on ChEMBL document CHEMBL1156471, “Targeting host cell furin proprotein convertases as a therapeutic strategy against bacterial toxins and viral pathogens” (J Biol Chem, 2007), this text covers Ki for 56 molecules.

Non-standard residues stand in square brackets, D forms with d. Residues, ends and D or L forms follow the SMILES beside them. Sar = CNCC(=O)O

The assay deals with Furin (Homo sapiens, UniProt P09958).
Sequence of Furin (P09958 whole entry): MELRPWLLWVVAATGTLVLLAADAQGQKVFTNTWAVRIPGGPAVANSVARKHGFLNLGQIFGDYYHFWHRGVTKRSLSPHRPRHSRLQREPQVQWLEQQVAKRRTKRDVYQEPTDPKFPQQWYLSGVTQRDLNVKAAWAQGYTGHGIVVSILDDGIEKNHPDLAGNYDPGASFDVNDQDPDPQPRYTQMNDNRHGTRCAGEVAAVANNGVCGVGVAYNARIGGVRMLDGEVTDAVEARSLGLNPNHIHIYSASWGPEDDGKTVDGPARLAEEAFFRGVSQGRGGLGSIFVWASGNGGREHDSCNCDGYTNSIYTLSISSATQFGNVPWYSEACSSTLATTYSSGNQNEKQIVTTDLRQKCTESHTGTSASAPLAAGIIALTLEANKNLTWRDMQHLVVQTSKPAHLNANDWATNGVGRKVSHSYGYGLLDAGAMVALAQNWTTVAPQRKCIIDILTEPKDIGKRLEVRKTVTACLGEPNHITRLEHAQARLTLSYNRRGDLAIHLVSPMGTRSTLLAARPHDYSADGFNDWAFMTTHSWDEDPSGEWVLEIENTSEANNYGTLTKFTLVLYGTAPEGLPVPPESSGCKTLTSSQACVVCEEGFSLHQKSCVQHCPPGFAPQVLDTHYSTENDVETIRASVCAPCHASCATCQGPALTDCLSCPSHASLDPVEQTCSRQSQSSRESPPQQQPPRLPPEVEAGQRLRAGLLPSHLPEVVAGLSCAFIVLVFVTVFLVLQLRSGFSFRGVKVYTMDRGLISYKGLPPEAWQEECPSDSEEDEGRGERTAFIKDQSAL

As to `C[C@@H](O)[C@H](N)C(=O)N1CCC[C@H]1C(=O)N[C@@H](CCC(N)=O)C(=O)N[C@@H](CCCN=C(N)N)C(=O)N[C@@H](CCCN=C(N)N)C(=O)N[C@@H](CCCN=C(N)N)C(=O)N[C@@H](CCCN=C(N)N)C(=O)N[C@@H](CCCN=C(N)N)C(=O)N[C@@H](CCCCN)C(=O)N[C@@H](CCCCN)C(=O)N[C@@H](CCCNC(=N)N)C(=O)NCC(=O)O`, the Ki (commonly a dissociation constant, usually derived from enzyme kinetics or from competition with a known ligand) is > 100 nM.

Take `CSCC[C@H](NC(=O)[C@H](CCCNC(=N)N)NC(=O)[C@H](CCCCN)NC(=O)[C@H](CCCCN)NC(=O)[C@H](CCCNC(=N)N)NC(=O)[C@H](CCCNC(=N)N)NC(=O)[C@H](CCCNC(=N)N)NC(=O)[C@H](C)NC(=O)[C@H](CCCNC(=N)N)NC(=O)[C@@H]1CCCN1C(=O)[C@@H](N)[C@@H](C)O)C(=O)O`: the Ki is > 100 nM.

H-TPRARRRKKRK-OH: the Ki is > 100 nM.

H-TPRERRRAARV-OH: the Ki was > 100 nM.

With H-TAAERRRKKR-OH, the Ki is > 100 nM.

Regarding `C[C@H](NC(=O)[C@H](C)NC(=O)[C@@H](N)[C@@H](C)O)C(=O)N[C@@H](CCC(=O)O)C(=O)N[C@@H](CCCNC(=N)N)C(=O)N[C@@H](CCCNC(=N)N)C(=O)N[C@@H](CCCNC(=N)N)C(=O)N[C@@H](CCCCN)C(=O)N[C@@H](CCCCN)C(=O)N[C@@H](CCCNC(=N)N)C(=O)N(C)CC(=O)O` (H-TAAERRRKKR[Sar]-OH), the Ki was > 100 nM.

Regarding H-TPREARRKKRG-NH2, the Ki was > 100 nM.

With H-TPQRPRRRKKRG-OH, the Ki was > 100 nM.

On to `CSCC[C@H](NC(=O)[C@H](CCCN=C(N)N)NC(=O)[C@H](CCCCN)NC(=O)[C@H](CCCCN)NC(=O)[C@H](CCCN=C(N)N)NC(=O)[C@H](CCCN=C(N)N)NC(=O)[C@H](CCCN=C(N)N)NC(=O)[C@H](C)NC(=O)[C@H](CCCN=C(N)N)NC(=O)[C@@H]1CCCN1C(=O)[C@@H](N)[C@@H](C)O)C(N)=O`, for which the Ki is > 100 nM.

Turning to `C[C@H](NC(=O)[C@H](C)NC(=O)[C@H](CCC(=O)O)NC(=O)[C@H](CCCN=C(N)N)NC(=O)[C@@H]1CCCN1C(=O)[C@@H](N)[C@@H](C)O)C(=O)N[C@@H](CCCN=C(N)N)C(=O)N[C@@H](CCCCN)C(=O)N[C@@H](CCCCN)C(=O)N[C@@H](CCCN=C(N)N)C(=O)N(C)CC(=O)O` (H-TPREAARKKR[Sar]-OH), the inhibition constant Ki is > 100 nM.

With H-TPQRHRRRKKRG-OH, the inhibitory constant (Ki) was > 100 nM.

H-GAGAGATPRARRRKKRT-OH had a Ki of 47 nM.

For `C[C@H](NC(=O)[C@H](CCCNC(=N)N)NC(=O)[C@H](CCC(N)=O)NC(=O)[C@@H]1CCCN1C(=O)[C@@H](N)[C@@H](C)O)C(=O)N[C@@H](CCCNC(=N)N)C(=O)N[C@@H](CCCNC(=N)N)C(=O)N[C@@H](CCCNC(=N)N)C(=O)N[C@@H](CCCCN)C(=O)N[C@@H](CCCCN)C(=O)N[C@H](CCCNC(=N)N)C(=O)NCC(=O)O`, the Ki is > 100 nM.

Consider H-TPRERRRKAAG-OH, for which the Ki was > 100 nM.

On to H-TPRERARKKRG-OH, for which the Ki was > 100 nM.

H-TPRERRAAKR-OH: the Ki is > 100 nM.

In turn, H-TPQRARRRKKRM-OH yielded an inhibition constant Ki of 58 nM.

As for `C[C@H](NC(=O)[C@H](CCCNC(=N)N)NC(=O)[C@H](CCC(=O)O)NC(=O)[C@H](CCCNC(=N)N)NC(=O)[C@@H]1CCCN1C(=O)[C@@H](N)[C@@H](C)O)C(=O)N[C@@H](CCCNC(=N)N)C(=O)N[C@@H](CCCCN)C(=O)N[C@@H](CCCCN)C(=O)N[C@@H](CCCNC(=N)N)C(=O)N(C)CC(=O)O` (H-TPRERARKKR[Sar]-OH), the Ki is > 100 nM.

For the molecule H-TPRERRRKKA-OH, the Ki was > 100 nM.

For the molecule H-TPAARRRKKR-OH, the Ki is > 100 nM.

Consider H-AARERRRKKRG-OH, for which the inhibitory constant (Ki) is > 100 nM.

As to H-TPRARRRKKRY-OH, the Ki was 53 nM.

As for H-TPRAARRKKRV-OH, the Ki is > 100 nM.

For H-TPRERAAKKRV-OH, the inhibition constant (Ki) was > 100 nM.

In the case of H-TARERRRKKRG-NH2, the inhibition constant (Ki) was > 100 nM.

With H-TPRERRAAKRV-OH, the Ki was > 100 nM.

Turning to H-TPRERRAKKRV-OH, the Ki was > 100 nM.

With `C[C@@H](O)[C@H](N)C(=O)N1CCC[C@H]1C(=O)N[C@@H](CCCN=C(N)N)C(=O)NC1(C(=O)N[C@@H](CCCN=C(N)N)C(=O)N[C@@H](CCCN=C(N)N)C(=O)N[C@@H](CCCN=C(N)N)C(=O)N[C@@H](CCCCN)C(=O)N[C@@H](CCCCN)C(=O)N[C@@H](CCCN=C(N)N)C(=O)NCC(N)=O)CCCC1`, the Ki is > 100 nM.

Take H-AAAERRRKKR-OH: the Ki is > 100 nM.

In the case of H-TPRAARRKKRG-OH, the Ki was > 100 nM.

With H-TPRNRRRKKRG-NH2, the Ki was > 100 nM.

In turn, H-TPRARRRKKRW-OH displayed a Ki of 59 nM.

Turning to `C[C@@H](O)[C@H](N)C(=O)N1CCC[C@H]1C(=O)N[C@@H](CCCN=C(N)N)C(=O)N[C@H](CCCCN)C(=O)N[C@@H](CCCN=C(N)N)C(=O)N[C@@H](CCCN=C(N)N)C(=O)N[C@@H](CCCN=C(N)N)C(=O)N[C@@H](CCCCN)C(=O)N[C@@H](CCCCN)C(=O)N[C@@H](CCCN=C(N)N)C(=O)NCC(N)=O`, the Ki is > 100 nM.

As for H-TPRAARRKKR-OH, the Ki is > 100 nM.

As to `C[C@@H](O)[C@H](N)C(=O)N1CCC[C@H]1C(=O)N[C@@H](CCC(N)=O)C(=O)N[C@@H](CCCNC(=N)N)C(=O)N[C@@H](CS)C(=O)N[C@@H](CCCNC(=N)N)C(=O)N[C@@H](CCCNC(=N)N)C(=O)N[C@@H](CCCNC(=N)N)C(=O)N[C@@H](CCCCN)C(=O)N[C@@H](CCCCN)C(=O)N[C@@H](CCCNC(=N)N)C(=O)NCC(=O)O`, the Ki is > 100 nM.

Turning to `C[C@H](NC(=O)[C@H](CCCCN)NC(=O)[C@H](CCCNC(=N)N)NC(=O)[C@H](CCCNC(=N)N)NC(=O)[C@H](CCCNC(=N)N)NC(=O)[C@H](CCC(=O)O)NC(=O)[C@H](CCCNC(=N)N)NC(=O)[C@@H]1CCCN1C(=O)[C@@H](N)[C@@H](C)O)C(=O)N[C@@H](CCCNC(=N)N)C(=O)N(C)CC(=O)O` (H-TPRERRRKAR[Sar]-OH), the Ki is > 100 nM.

With H-TPRARRRKKRR-OH, the inhibition constant Ki is > 100 nM.

Turning to `C[C@H](N)C(=O)N1CCC[C@H]1C(=O)N[C@@H](CCCNC(=N)N)C(=O)N[C@@H](CCC(=O)O)C(=O)N[C@@H](CCCNC(=N)N)C(=O)N[C@@H](CCCNC(=N)N)C(=O)N[C@@H](CCCNC(=N)N)C(=O)N[C@@H](CCCCN)C(=O)N[C@@H](CCCCN)C(=O)N[C@@H](CCCNC(=N)N)C(=O)N(C)CC(=O)O` (H-APRERRRKKR[Sar]-OH), the Ki is > 100 nM.

With `C[C@@H](O)[C@H](N)C(=O)N1CCC[C@H]1C(=O)N[C@@H](CCCNC(=N)N)C(=O)NCCCCCC(=O)N[C@@H](CCCNC(=N)N)C(=O)N[C@@H](CCCNC(=N)N)C(=O)N[C@@H](CCCNC(=N)N)C(=O)N[C@@H](CCCCN)C(=O)N[C@@H](CCCCN)C(=O)N[C@@H](CCCNC(=N)N)C(=O)NCC(=O)O`, the Ki was > 100 nM.

Consider H-TPRMRRRKKRG-OH, for which the Ki is > 100 nM.

On to H-TPAERRRKKRV-OH, for which the Ki was > 100 nM.

Consider `C[C@@H](O)[C@H](N)C(=O)N1CCC[C@H]1C(=O)N[C@@H](CCCNC(=N)N)C(=O)N[C@@H](CCCNC(N)=O)C(=O)N[C@@H](CCCNC(=N)N)C(=O)N[C@@H](CCCNC(=N)N)C(=O)N[C@@H](CCCNC(=N)N)C(=O)N[C@@H](CCCCN)C(=O)N[C@@H](CCCCN)C(=O)N[C@@H](CCCNC(=N)N)C(=O)NCC(N)=O`, for which the inhibitory constant (Ki) was > 100 nM.

Turning to H-TPREAAAKKR-OH, the inhibitory constant (Ki) was > 100 nM.

Consider H-TPRNRRRKKRG-OH, for which the Ki is > 100 nM.

As to `CCCC[C@H](NC(=O)[C@H](CCCNC(=N)N)NC(=O)[C@H](CCC(N)=O)NC(=O)[C@@H]1CCCN1C(=O)[C@@H](N)[C@@H](C)O)C(=O)N[C@@H](CCCNC(=N)N)C(=O)N[C@@H](CCCNC(=N)N)C(=O)N[C@@H](CCCNC(=N)N)C(=O)N[C@@H](CCCCN)C(=O)N[C@@H](CCCCN)C(=O)N[C@@H](CCCNC(=N)N)C(=O)NCC(=O)O`, the Ki is > 100 nM.

As to `C[C@H](N)C(=O)N[C@@H](C)C(=O)N[C@@H](CCCN=C(N)N)C(=O)N[C@@H](CCC(=O)O)C(=O)N[C@@H](CCCN=C(N)N)C(=O)N[C@@H](CCCN=C(N)N)C(=O)N[C@@H](CCCN=C(N)N)C(=O)N[C@@H](CCCCN)C(=O)N[C@@H](CCCCN)C(=O)N[C@@H](CCCN=C(N)N)C(=O)N(C)CC(=O)O` (H-AARERRRKKR[Sar]-OH), the Ki was > 100 nM.

Take `C[C@H](NC(=O)[C@H](CCCNC(=N)N)NC(=O)[C@@H]1CCCN1C(=O)[C@@H](N)[C@@H](C)O)C(=O)N[C@@H](CCCNC(=N)N)C(=O)N[C@@H](CCCNC(=N)N)C(=O)N[C@@H](CCCNC(=N)N)C(=O)N[C@@H](CCCCN)C(=O)N[C@@H](CCCCN)C(=O)N[C@@H](CCCNC(=N)N)C(=O)N[C@@H](CS)C(=O)O`: the Ki was > 100 nM.

As to H-TPQRWRRRKKRG-OH, the Ki was > 100 nM.

`C[C@@H](O)[C@H](N)C(=O)N1CCC[C@H]1C(=O)N[C@@H](CCC(N)=O)C(=O)N[C@@H](CCCNC(=N)N)C(=O)NCCC(=O)N[C@@H](CCCN=C(N)N)C(=O)N[C@@H](CCCN=C(N)N)C(=O)N[C@@H](CCCN=C(N)N)C(=O)N[C@@H](CCCCN)C(=O)N[C@@H](CCCCN)C(=O)N[C@@H](CCCNC(=N)N)C(=O)NCC(=O)O`: the Ki is > 100 nM.

As to `C[C@H](NC(=O)[C@H](C)NC(=O)[C@H](CCCN=C(N)N)NC(=O)[C@H](CCCN=C(N)N)NC(=O)[C@H](CCCN=C(N)N)NC(=O)[C@H](CCC(=O)O)NC(=O)[C@H](CCCN=C(N)N)NC(=O)[C@@H]1CCCN1C(=O)[C@@H](N)[C@@H](C)O)C(=O)N[C@@H](CCCN=C(N)N)C(=O)O`, the Ki was > 100 nM.

Take `CC[C@H](NC(=O)[C@H](CCCNC(=N)N)NC(=O)[C@H](CCC(N)=O)NC(=O)[C@@H]1CCCN1C(=O)[C@@H](N)[C@@H](C)O)C(=O)N[C@@H](CCCNC(=N)N)C(=O)N[C@@H](CCCNC(=N)N)C(=O)N[C@@H](CCCNC(=N)N)C(=O)N[C@@H](CCCCN)C(=O)N[C@@H](CCCCN)C(=O)N[C@@H](CCCNC(=N)N)C(=O)NCC(=O)O`: the Ki was > 100 nM.

As to H-TPRIRRRKKRG-NH2, the inhibition constant (Ki) was > 100 nM.

For the molecule H-TPAAARRKKRV-OH, the Ki was > 100 nM.

Take `CSC[C@H](NC(=O)[C@H](CCCNC(=N)N)NC(=O)[C@H](CCC(N)=O)NC(=O)[C@@H]1CCCN1C(=O)[C@@H](N)[C@@H](C)O)C(=O)N[C@@H](CCCNC(=N)N)C(=O)N[C@@H](CCCNC(=N)N)C(=O)N[C@@H](CCCNC(=N)N)C(=O)N[C@@H](CCCCN)C(=O)N[C@@H](CCCCN)C(=O)N[C@@H](CCCNC(=N)N)C(=O)NCC(=O)O`: the Ki was > 100 nM.

As to H-APRERRRKKRG-OH, the Ki is > 100 nM.

Regarding H-TPRQRRRKKRG-NH2, the Ki was > 100 nM.
